pKi: −log10 of the molar value.
Legend:
[1] = test system: KP1004 (KPC-2); assay: Aztreonam potentiation (MPC@4), KP1004; type: cell-based; conditions: BLI with aztreonam at 4 μg/mL
[2] = biological target: CTX-M-14 (Escherichia coli, UniProt Q9L5C7); assay: Ki, nitrocefin cleavage by purified enzyme, CTX-M-14; type: biochemical; conditions: nitrocefin reporter substrate; read-out: Ki (CTX-M-14, NCF)
Description: (§1) Purified enzymes were mixed with various concentrations of inhibitors in reaction buffer and incubated for 10 min at room temperature. Nitrocefin was added and substrate cleavage profiles were recorded at 490 nm every 10 sec for 10 min.

[3] = test system: ECL1002; assay: Aztreonam potentiation (MPC@4), ECL1002; type: cell-based; conditions: BLI with aztreonam at 4 μg/mL
[4] = test system: ec302 (TEM-10); assay: Aztreonam potentiation (MPC@4), ec302; type: cell-based; conditions: BLI with aztreonam at 4 μg/mL
[5] = test system: ec302 (TEM-10); assay: Tigemonam potentiation (MPC@4), ec302; type: cell-based
[6] = biological target: SHV-12 (Klebsiella pneumoniae, UniProt P0AD64, E235K/G234S/L31Q); assay: Ki, nitrocefin cleavage by purified enzyme, SHV-12; type: biochemical; conditions: nitrocefin reporter substrate; read-out: Ki (SHV-12, NCF)
Sequence of SHV-12 (P0AD64 22-286 L31Q/G234S/E235K): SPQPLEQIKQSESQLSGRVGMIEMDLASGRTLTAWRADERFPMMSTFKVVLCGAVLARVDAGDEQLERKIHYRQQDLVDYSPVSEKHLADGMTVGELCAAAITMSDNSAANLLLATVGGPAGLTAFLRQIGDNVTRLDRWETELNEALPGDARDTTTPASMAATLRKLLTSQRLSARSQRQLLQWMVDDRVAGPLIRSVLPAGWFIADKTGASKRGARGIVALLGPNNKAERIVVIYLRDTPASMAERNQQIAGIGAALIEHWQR
Description: as §1

[7] = test system: KP1010 (SHV-12); assay: Tigemonam potentiation (MPC@4), KP1010; type: cell-based
[8] = test system: ec308 (SHV-5); assay: Tigemonam potentiation (MPC@4), ec308; type: cell-based
[9] = biological target: OXA-48 (Klebsiella pneumoniae, UniProt Q6XEC0); assay: Ki, nitrocefin cleavage by purified enzyme, OXA-48; type: biochemical; conditions: nitrocefin reporter substrate; read-out: Ki (OXA-48, NCF)
Sequence of OXA-48 (Q6XEC0 23-265, looked up, species assumed): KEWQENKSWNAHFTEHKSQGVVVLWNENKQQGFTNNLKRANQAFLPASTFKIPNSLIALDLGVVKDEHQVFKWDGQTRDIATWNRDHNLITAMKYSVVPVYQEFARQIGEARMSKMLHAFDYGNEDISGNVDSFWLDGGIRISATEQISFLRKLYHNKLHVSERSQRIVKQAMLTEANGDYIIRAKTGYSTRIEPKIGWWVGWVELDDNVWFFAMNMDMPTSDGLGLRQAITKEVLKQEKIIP
Description: as §1

[10] = test system: KP1005 (CTX-M-14); assay: Tigemonam potentiation (MPC@4), KP1005; type: cell-based; conditions: BLI with tigemonam at 4 μg/mL
[11] = test system: KP1004 (KPC-2); assay: Biapenem potentiation (MPC@1), KP1004; conditions: BLI with biapenem at 1 μg/mL
[12] = test system: KP1005 (CTX-M-14); assay: Aztreonam potentiation (MPC@4), KP1005; type: cell-based; conditions: BLI with aztreonam at 4 μg/mL
[13] = biological target: KPC-2 (Klebsiella pneumoniae, UniProt Q9F663); assay: Ki, nitrocefin cleavage by purified enzyme, KPC-2; type: biochemical; conditions: nitrocefin reporter substrate; read-out: Ki (KPC-2, NCF)
Sequence of KPC-2 (Q9F663 25-293, looked up, species assumed): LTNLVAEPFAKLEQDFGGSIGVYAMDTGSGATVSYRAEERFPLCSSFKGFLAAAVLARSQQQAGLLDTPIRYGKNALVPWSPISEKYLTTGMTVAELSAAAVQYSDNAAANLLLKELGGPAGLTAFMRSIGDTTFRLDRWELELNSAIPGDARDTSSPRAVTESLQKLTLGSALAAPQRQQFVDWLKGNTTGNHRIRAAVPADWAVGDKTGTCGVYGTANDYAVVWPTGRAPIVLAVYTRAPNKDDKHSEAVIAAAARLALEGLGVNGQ
Description: as §1

[14] = test system: ECL1002; assay: Tigemonam potentiation (MPC@4), ECL1002; type: cell-based; conditions: BLI with tigemonam at 4 μg/mL
[15] = test system: EC1010 (CMY-6); assay: organism not typed; type: cell-based
[16] = biological target: P99 (Enterobacter cloacae, UniProt P05364); assay: Ki, nitrocefin cleavage by purified enzyme, P99; type: biochemical; conditions: nitrocefin reporter substrate; read-out: Ki (P99, NCF)
Sequence of P99 (P05364 21-381): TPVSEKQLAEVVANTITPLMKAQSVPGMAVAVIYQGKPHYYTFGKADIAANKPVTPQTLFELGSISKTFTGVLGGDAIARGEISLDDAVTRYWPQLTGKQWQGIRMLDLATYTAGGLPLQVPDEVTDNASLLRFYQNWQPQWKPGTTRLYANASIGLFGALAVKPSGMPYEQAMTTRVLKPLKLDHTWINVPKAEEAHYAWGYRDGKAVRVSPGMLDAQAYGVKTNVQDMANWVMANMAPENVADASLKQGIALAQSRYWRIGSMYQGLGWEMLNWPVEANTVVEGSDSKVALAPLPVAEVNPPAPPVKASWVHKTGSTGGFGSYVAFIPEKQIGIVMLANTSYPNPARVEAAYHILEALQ
Description: as §1

[17] = test system: EC1010 (CMY-6); assay: Tigemonam potentiation (MPC@4), EC1010; type: cell-based; conditions: BLI with tigemonam at 4 μg/mL
[18] = test system: KP1086 (OXA-48); assay: Biapenem potentiation (MPC@1), KP1086; conditions: BLI with biapenem at 1 μg/mL
[19] = test system: KP1009 (CTX-M-15); assay: Tigemonam potentiation (MPC@4), KP1009; type: cell-based; conditions: BLI with tigemonam at 4 μg/mL
[20] = biological target: Pa AmpC (Pseudomonas aeruginosa, UniProt P24735); assay: Ki, nitrocefin cleavage by purified enzyme, Pa AmpC; type: biochemical; conditions: nitrocefin reporter substrate; read-out: Ki (Pa AmpC, NCF)
Sequence of Pa AmpC (P24735 27-397): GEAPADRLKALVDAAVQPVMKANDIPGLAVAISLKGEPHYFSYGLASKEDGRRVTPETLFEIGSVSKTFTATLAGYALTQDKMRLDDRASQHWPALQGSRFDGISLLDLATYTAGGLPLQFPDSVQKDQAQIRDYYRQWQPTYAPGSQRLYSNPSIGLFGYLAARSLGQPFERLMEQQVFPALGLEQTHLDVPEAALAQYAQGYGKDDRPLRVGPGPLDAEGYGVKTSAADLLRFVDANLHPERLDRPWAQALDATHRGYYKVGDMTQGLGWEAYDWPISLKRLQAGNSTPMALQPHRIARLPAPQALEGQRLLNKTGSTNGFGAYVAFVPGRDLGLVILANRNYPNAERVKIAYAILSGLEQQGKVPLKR
Description: Ki values of inhibition of purified class A, C and D enzymes were determined spectrophotometrically using nitrocefin as reporter substrate. Purified enzymes were mixed with various concentrations of inhibitors in reaction buffer and incubated for 10 min at room temperature. Nitrocefin was added and substrate cleavage profiles were recorded at 490 nm every 10 sec for 10 min. These experiments confirmed that the described compounds are inhibitors with a broad-spectrum of activity towards various β-lactamases.

[21] = Monomer content of pH adjusted aqueous solutions (LC-UV); type: physicochemical; conditions: 1 mg/mL aqueous salt solution, pH adjusted to 7.6 to 8, LC-UV
Description: Boronic acid containing compounds are known to undergo oligomerization. The presence of oligomers can greatly complicate drug development, as they represent new chemical species whose content must be controlled and qualified by testing in toxoicology studies. The monomer content of compounds was evaluated by adjusting aqueous solutions to physiological pH at various concentrations. The monomer content of pH adjusted solutions was measured using LC-UV. Test compounds were weighed out into a 1.5 mL Eppendorf tube. A solution of water was prepared in 1.00 mg/mL, 10.0 mg/mL or 100 mg/mL concentrations of the compound based on active fraction. A volume 20 uL was subtracted to allow room for addition of acid or base to adjust pH. The solution pH was measured. The pH was then adjusted through addition of acid or base as necessary until the reading was in the 7.6 to 8 range. A final pH measurement was made after ensuring all the compound was in solution. The solution was injected onto LC-UV in 0.1 uL to 5 uL volume within less than half an hour after the time the sample was prepared. Elution was done using 0.1% TFA in water for mobile phase A and 0.085% TFA in methanol for mobile phase B on an Excel ACE 5 Super C18 2.1×100 mm column at 0.6 ml/min flow rate with 9 min gradient, 3.9 minute hold at 90% B and 18 minute run time. The absorption was measured at 220, 254 and 300 nm with a 4 nm bandwidth.

Sequence of CTX-M-14 (Q9L5C7 29-291): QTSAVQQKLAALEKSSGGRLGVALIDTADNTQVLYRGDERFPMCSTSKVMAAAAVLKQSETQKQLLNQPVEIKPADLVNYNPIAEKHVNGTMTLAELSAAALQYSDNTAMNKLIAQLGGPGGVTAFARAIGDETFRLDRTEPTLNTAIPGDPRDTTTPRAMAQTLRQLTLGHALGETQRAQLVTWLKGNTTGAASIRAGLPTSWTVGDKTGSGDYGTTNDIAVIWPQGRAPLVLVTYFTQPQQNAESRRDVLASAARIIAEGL

O=C(O)CC(=O)N[C@H]1Cc2ccc(F)c(C(=O)O)c2OB1O [Compound 4, (R)-3-(2-carboxyacetamido)-7-fluoro-2-hydroxy-3,4-dihydro-2H-benzo[e][1,2]oxaborinine-8-carboxylic acid]
AZT MPC4 KPC-2 KP1004 [1]: Y (MIC of 1 μg/mL to 10 μg/mL)
pKi [2]: > 9.00
AZT MPC4 ECL1002 [3]: Y (MIC of 1 μg/mL to 10 μg/mL)
AZT MPC4 TEM-10 ec302 [4]: Y (MIC of 1 μg/mL to 10 μg/mL)
TIG MPC4 TEM-10 ec302 [5]: Z (key: X: MIC of less than 1 ng/mL; Y: MIC of 1 μg/mL to 10 μg/mL; Z: MIC of greater than 10 μg/mL)
pKi [6]: > 9.00
TIG MPC4 SHV-12 KP1010 [7]: Y (key: X: MIC of less than 1 ng/mL; Y: MIC of 1 μg/mL to 10 μg/mL; Z: MIC of greater than 10 μg/mL)
TIG MPC4 SHV-5 ec308 [8]: Y (key: X: MIC of less than 1 ng/mL; Y: MIC of 1 μg/mL to 10 μg/mL; Z: MIC of greater than 10 μg/mL)
pKi [9]: > 9.00
TIG MPC4 CTX-M-14 KP1005 [10]: Y (MIC of 1 μg/mL to 10 μg/mL)
BPM MPC1 KP1004 KPC-2 [11]: X (MIC of less than 1 μg/mL)
AZT MPC4 CTX-M-14 KP1005 [12]: Y (MIC of 1 μg/mL to 10 μg/mL)
pKi [13]: < 8.00
TIG MPC4 ECL1002 [14]: X (MIC of less than 1 μg/mL)
AZT MPC4 CMY-6 EC1010 [15]: Y (key: X: MIC of less than 1 ng/mL; Y: MIC of 1 μg/mL to 10 μg/mL; Z: MIC of greater than 10 μg/mL)
pKi [16]: < 8.00
TIG MPC4 CMY-6 EC1010 [17]: X (MIC of less than 1 μg/mL)
BPM MPC1 OXA-48 KP1086 [18]: Z (MIC of greater than 10 μg/mL)
TIG MPC4 CTX-M-15 KP1009 [19]: X (MIC of less than 1 μg/mL)
pKi [20]: < 8.00

CSCC(=O)N[C@H]1Cc2ccc(SC3CNC3)c(C(=O)O)c2OB1O [Compound 11, (R)-7-(azetidin-3-ylthio)-2-hydroxy-3-(2-(methylthio)acetamido)-3,4-dihydro-2H-benzo oxaborinine-8-carboxylic acid]
AZT MPC4 KPC-2 KP1004 [1]: Y (MIC of 1 μg/mL to 10 μg/mL)
pKi [2]: 8.00 to 9.00
AZT MPC4 ECL1002 [3]: Y (MIC of 1 μg/mL to 10 μg/mL)
AZT MPC4 TEM-10 ec302 [4]: Y (MIC of 1 μg/mL to 10 μg/mL)
TIG MPC4 TEM-10 ec302 [5]: Z (key: X: MIC of less than 1 ng/mL; Y: MIC of 1 μg/mL to 10 μg/mL; Z: MIC of greater than 10 μg/mL)
pKi [6]: 8.00 to 9.00
% Monomer in 1 mg/mL salt solution [21]: 88.0%
TIG MPC4 SHV-12 KP1010 [7]: X (key: X: MIC of less than 1 μg/mL; Y: MIC of 1 μg/mL to 10 μg/mL; Z: MIC of greater than 10 μg/mL)
TIG MPC4 SHV-5 ec308 [8]: X (key: X: MIC of less than 1 μg/mL; Y: MIC of 1 μg/mL to 10 μg/mL; Z: MIC of greater than 10 μg/mL)
pKi [9]: 8.00 to 9.00
TIG MPC4 CTX-M-14 KP1005 [10]: X (MIC of less than 1 μg/mL)
BPM MPC1 KP1004 KPC-2 [11]: X (MIC of less than 1 μg/mL)
pKi [13]: < 8.00
TIG MPC4 ECL1002 [14]: X (MIC of less than 1 μg/mL)
AZT MPC4 CMY-6 EC1010 [15]: Y (key: X: MIC of less than 1 ng/mL; Y: MIC of 1 μg/mL to 10 μg/mL; Z: MIC of greater than 10 μg/mL)
pKi [16]: < 8.00
TIG MPC4 CMY-6 EC1010 [17]: X (MIC of less than 1 μg/mL)
BPM MPC1 OXA-48 KP1086 [18]: Y (MIC of 1 μg/mL to 10 μg/mL)
TIG MPC4 CTX-M-15 KP1009 [19]: Y (MIC of 1 μg/mL to 10 μg/mL)
pKi [20]: < 8.00

From patent publication US9963467B2, “Boronic acid derivatives and therapeutic uses thereof” (Rempex Pharmaceuticals, Inc., priority 2014, dated 2018)
